Laboratory results from US12152077B1, “Immunotherapy targeting tumor neoantigenic peptides” (INSTITUT CURIE, priority 2019, dated 2024).
Entries after “also recorded” stand apart in the source; their conditions may differ.

Columns and labels:
[1] = test system: CD8+ T cells from HLA-A2+ healthy donors; experiment: Priming of naive CTLs by peptide-loaded autologous moDCs (immunogenicity, tetramer staining); assay type: cell-based, human; conditions: for expansion of specific CD8+ T cells (tetramer positive): one donor, versus co-culture without peptides; for specific CD8+ T expansions (immunogenicity): total of 6 donors, FIG. 11A
Protocol: Priming of naïve CTLs. PBMCs were obtained by Ficoll gradient separation from HLA-A2+ healthy blood donors. CD14+, CD4+ and CD8+ cells were purified by positive selection using magnetic beads (Miltenyi Biotec). While CD4+ and CD8+ T cells were cryopreserved until the experiment day, CD14+ fraction was cultured in the presence of IL-4 (50 ng/mL) and GM-CSF (10 ng/ml) at 10^6 cells/mL during 5 days to obtain moDCs. After this period of time, the moDCs were maturated with LPS and incubated with synthetic ER-derived peptides at a final concentration of 1 μg/mL for 2 hours. Finally, peptide-loaded moDCs were co-cultured with autologous CD4+ and CD8+ T cells in culture medium supplemented with IL-2 (10 U/ml) and IL-7 (100 ng/ml). The ER-derived peptide stimulation of specific CD8+ CTL populations was assessed by MHC-I tetramer staining by flow cytometry using a combination of two-color tetramer for each peptide.
(§1) Tetramer Staining. Cells were resuspended in PBS, stained with Live/Dead Aqua-405 nm (ThermoFisher) during 20 minutes at 4° C. and washed once. After that, cells were resuspended in PBS-1% BSA containing the mix of SA-coupled tetramers and incubated in the dark at room temperature during 20 minutes. Without further washing, surface antibodies were added in PBS-1% BSA and cells were incubated 20 minutes in the dark at 4° C. Surface antibodies were a combination of anti-CD3-BV650+ anti-CD8-PECy7 in combination with anti-CCR7-AF700+ anti-CD45RA-BUV395 when required. Finally, cells were washed twice and resuspended in FACS buffer for flow cytometry analysis.
The following step after binding validation to HLA-A2 allele, was to test the immunogenicity of predicted peptides. Priming assays were thus performed to test the ability of identified peptides to expand specific cytotoxic T cells. PBMCs from HLA-A2+ healthy donors were used to generate monocyte derived-DCs (moDCs). After loading the moDCs with a mix of synthetic peptides, autologous co-culture was performed with CD4+ and CD8+ T cells. Finally, the expansion of specific CD8+ T cells was analysed by flow cytometry using two-colours tetramer staining. As a control of specific expansion, the co-culture was performed in the absence of peptides. […] The same experiment was performed in order to evaluate the response in additional 5 donors.

[2] = test system: TILs derived from LUAD patients; experiment: Tetramer staining of expanded tumor infiltrating lymphocytes (TILs); assay type: cell-based, human; conditions: TILs expanded with peptide mix + IL-2 or IL-2 only; HLA-A2+ LUAD patients
Protocol: as §1
Tumor infiltrating lymphocytes (TILs) cultures. Tumor tissue was cut into small pieces (1-3 mm3 size, 6-12 pieces maximum). Each tumor fragment was transferred into individual wells from 24-well plates and cultured in a final volume of 2 ml RPMI 10% Human Serum+IL-2 6000 IU/ml. Cells were feed/split as necessary during 15-20 days and cryopreserve or analyzed for tetramer staining.
In a first set of experiments tumor infiltrating lymphocytes (TILs) expanded with a mix of TE-derived peptides and Il-2, or only with Il-2, were analyzed by tetramer staining. As is shown in FIGS. 13A and B, we found CD8+ T-cells cells recognizing fusion-derived peptides in TILs derived from LUAD patients.

## AILPKANTV
[1]
  expansion of specific CD8+ T cells (tetramer positive): expand specific CD8+ T cells
  specific CD8+ T expansions (immunogenicity): specific CD8+ T expansions

## AMDGKELSL
[1]
  specific CD8+ T expansions (immunogenicity): specific CD8+ T expansions

## FLGTRVTRV
[1]
  specific CD8+ T expansions (immunogenicity): specific CD8+ T expansions

## FLIVAEILI
[1]
  expansion of specific CD8+ T cells (tetramer positive): expand specific CD8+ T cells

## GLLNISHTA
[1]
  specific CD8+ T expansions (immunogenicity): specific CD8+ T expansions

## GLPSHVELA
[1]
  specific CD8+ T expansions (immunogenicity): specific CD8+ T expansions; also recorded: immunogenic
[2]
  CD8+ T cells recognizing peptide in TILs (tetramer positive): found TILs recognizing

## ILHSLVTGV
[1]
  specific CD8+ T expansions (immunogenicity): specific CD8+ T expansions

## ILSGYGPCV
[1]
  specific CD8+ T expansions (immunogenicity): specific CD8+ T expansions

## ILTASITSI
[1]
  specific CD8+ T expansions (immunogenicity): specific CD8+ T expansions

## LLDRFGYHV
[1]
  specific CD8+ T expansions (immunogenicity): specific CD8+ T expansions

## LLGETKVYV
[1]
  expansion of specific CD8+ T cells (tetramer positive): expand specific CD8+ T cells
  specific CD8+ T expansions (immunogenicity): specific CD8+ T expansions

## LLHLESFLV
[1]
  specific CD8+ T expansions (immunogenicity): specific CD8+ T expansions

## LLTSWHLYL
[1]
  specific CD8+ T expansions (immunogenicity): specific CD8+ T expansions

## MLMKTVWQA
[1]
  specific CD8+ T expansions (immunogenicity): specific CD8+ T expansions

## MLVTWELAL
[1]
  specific CD8+ T expansions (immunogenicity): specific CD8+ T expansions

## RLADHLSFC
[1]
  expansion of specific CD8+ T cells (tetramer positive): expand specific CD8+ T cells
  specific CD8+ T expansions (immunogenicity): specific CD8+ T expansions; also recorded: immunogenic

## RLLHLESFL
[1]
  expansion of specific CD8+ T cells (tetramer positive): expand specific CD8+ T cells

## RQAPGFHHA
[1]
  specific CD8+ T expansions (immunogenicity): specific CD8+ T expansions

## SLMQSGSPV
[1]
  specific CD8+ T expansions (immunogenicity): specific CD8+ T expansions

## VLLTNTIWL
[1]
  specific CD8+ T expansions (immunogenicity): specific CD8+ T expansions

## YLWTTFFPL
[1]
  expansion of specific CD8+ T cells (tetramer positive): expand specific CD8+ T cells
  specific CD8+ T expansions (immunogenicity): specific CD8+ T expansions
